The source of these data is patent US6833389B2, “Use of thiamphenicol and derivatives thereof for the preparation of pharmaceutical compositions useful in the treatment of Chlamydia pneumoniae infections” (Zambon Group S.p.A., priority 2000, dated 2004).

≈ marks a conversion by molar mass, not a printed value. Where two headings read alike, the source gives them in different places.

The test system of test [1] is Chlamydia trachomatis. As to conditions: literature (Ridgeway et al. 1979); markedly lower than erythromycin; cited from earlier work.
The subject of test [2] is Chlamydia pneumoniae. The test can be described thus: MIC against Chlamydia pneumoniae strains in Hep-2 cell monolayers (inhibition of inclusion formation). The class given is cell-based. The protocol: Chlamydia pneumoniae TW183 and Chlamydia pneumoniae 2023 were obtained from American Type Culture Collection. The other strains (No. 9 isolated) were clinically isolated in the period 1997-1999. […] Monolayers of Hep-2 cells were prepared by seeding 2×10^5 cell/ml in EMEM with 10% fetal calf serum supplemented with L-glutammine, on 12 mm cover slips and left at 35° C., 5% CO2 for 24 to 48 hours for confluent growth. The growth medium was removed and Hep-2 monolayers were inoculated with the different strains at predetermined concentration calculated to give 3-5×10^2 inclusions for well. The monolayers, inoculated with Chlamydia pneumoniae were centrifuged at 1700 g for 60 minutes at 30° C. […] In positive control no antibiotic was added and negative control were considered wells not inoculated with Chlamydia pneumoniae. […] All tests were run in duplicate. The number of inclusions were counted and the MIC (the lowest concentration at which complete inhibition of inclusion formation was observed) was determined.

Test [3] concerns Chlamydia pneumoniae. As to conditions: background statement; cited from earlier work.
Where [4] appears, read: Chlamydia pneumoniae, 72 h, MIC range over the 11 Chlamydia pneumoniae strains, Hep-2 cells, 3 days, read-out: MIC.
Where [5] appears, read: strain 4 (clinical isolate), test I.
[6] abbreviates: strain 7 (clinical isolate), test I.
Setting [7] is: strain 7 (clinical isolate), test II.
The mark [8] stands for this setting: strain 8 (clinical isolate), test I.
Where [9] appears, read: strain 8 (clinical isolate), test II.
Where [10] appears, read: strain 9 (clinical isolate), test I.

With `CS(=O)(=O)c1ccc([C@@H](O)[C@@H](CO)NC(=O)C(Cl)Cl)cc1` [thiamphenicol], the “activity against Chlamydia trachomatis” value in test [1] is on record as “active”. Besides, in test [2] (setting [4]), the minimum inhibitory concentration (MIC) lay in the range of 0.03 to 0.25 µg/mL (≈ 0.0842 to 0.702 µM).
Take `CC(=O)N[C@@H](CS)C(=O)O.CS(=O)(=O)c1ccc([C@@H](O)[C@@H](COC(=O)CN)NC(=O)C(Cl)Cl)cc1` [TGA, thiamphenicol glycinate acetylcysteinate]: the MIC in test [2] (strain 1 (clinical isolate), test I) is 0.03 µg/mL; in test [2] (strain 1 (clinical isolate), test II), 0.06 µg/mL; in test [2] (strain 2 (clinical isolate), test I), 0.03 µg/mL; in test [2] (strain 2 (clinical isolate), test II) it was 0.03 µg/mL; in test [2] (strain 3 (clinical isolate), test I) it was 0.125 µg/mL; in test [2] (strain 3 (clinical isolate), test II), 0.125 µg/mL. Further, the MIC in test [2] (setting [5]) was determined as 0.25 µg/mL; in test [2] (strain 4 (clinical isolate), test II), 0.06 µg/mL; in test [2] (strain 5 (clinical isolate), test I) it was 0.125 µg/mL; in test [2] (strain 5 (clinical isolate), test II), 0.125 µg/mL; in test [2] (strain 6 (clinical isolate), test I) it was 0.03 µg/mL; in test [2] (strain 6 (clinical isolate), test II), 0.03 µg/mL. For the same compound, the minimal inhibitory concentration (MIC) in test [2] (setting [6]) amounted to 0.03 µg/mL; in test [2] (setting [7]), 0.03 µg/mL; in test [2] (setting [8]), 0.125 µg/mL; in test [2] (setting [9]) it was 0.03 µg/mL; in test [2] (setting [10]), 0.125 µg/mL; in test [2] (strain 9 (clinical isolate), test II), 0.125 µg/mL. Also, the minimal inhibitory concentration (MIC) in test [2] (strain ATCC 2023, test I) turned out to be 0.03 µg/mL; in test [2] (strain ATCC 2023, test II) it was 0.03 µg/mL; in test [2] (strain TW 183, test I), 0.06 µg/mL; in test [2] (strain TW 183, test II), 0.03 µg/mL.
On to `CC1(C)S[C@@H]2[C@H](NC(=O)[C@H](N)c3ccc(O)cc3)C(=O)N2[C@H]1C(=O)O` [Amoxicillin, amoxicillin], for which the minimum inhibitory concentration (MIC) in test [2] (setting [4]) is above 16 µg/mL.
Take `CC[C@H]1OC(=O)[C@H](C)[C@@H](O[C@H]2C[C@@](C)(OC)[C@@H](O)[C@H](C)O2)[C@H](C)[C@@H](O[C@@H]2O[C@H](C)C[C@H](N(C)C)[C@H]2O)[C@](C)(OC)C[C@@H](C)C(=O)[C@H](C)[C@@H](O)[C@]1(C)O` [Clarithromycin, clarithromycin]: the “activity in vitro against Chlamydia pneumoniae” value in test [3] is “active”. Further, the MIC in test [2] (Chlamydia pneumoniae) was 0.125 µg/mL (≈ 0.167 µM); in test [2] (setting [4]), 0.03 to 0.25 µg/mL (≈ 0.0401 to 0.334 µM); in test [2] (Chlamydia pneumoniae, ATCC2023, strain ATCC 2023, test I, read-out: MIC), 0.03 µg/mL (≈ 0.0401 µM); in test [2] (Chlamydia pneumoniae, ATCC2023, strain ATCC 2023, test II, read-out: MIC), 0.03 µg/mL (≈ 0.0401 µM); in test [2] (Chlamydia pneumoniae, strain 1 (clinical isolate), test I, read-out: MIC), 0.03 µg/mL (≈ 0.0401 µM); in test [2] (Chlamydia pneumoniae, strain 1 (clinical isolate), test II, read-out: MIC) it was 0.03 µg/mL (≈ 0.0401 µM). Besides, the MIC in test [2] (Chlamydia pneumoniae, strain 2 (clinical isolate), test I, read-out: MIC) is 0.25 µg/mL (≈ 0.334 µM); in test [2] (Chlamydia pneumoniae, strain 2 (clinical isolate), test II, read-out: MIC), 0.03 µg/mL (≈ 0.0401 µM); in test [2] (Chlamydia pneumoniae, strain 3 (clinical isolate), test I, read-out: MIC), 0.03 µg/mL (≈ 0.0401 µM); in test [2] (Chlamydia pneumoniae, strain 3 (clinical isolate), test II, read-out: MIC) it was 0.03 µg/mL (≈ 0.0401 µM); in test [2] (Chlamydia pneumoniae, strain 4 (clinical isolate), test II, read-out: MIC), 0.06 µg/mL (≈ 0.0802 µM); in test [2] (Chlamydia pneumoniae, strain 5 (clinical isolate), test I, read-out: MIC) it was 0.03 µg/mL (≈ 0.0401 µM). Besides, the MIC in test [2] (Chlamydia pneumoniae, strain 5 (clinical isolate), test II, read-out: MIC) was 0.03 µg/mL (≈ 0.0401 µM); in test [2] (Chlamydia pneumoniae, strain 6 (clinical isolate), test I, read-out: MIC), 0.03 µg/mL (≈ 0.0401 µM); in test [2] (Chlamydia pneumoniae, strain 9 (clinical isolate), test II, read-out: MIC), 0.03 µg/mL (≈ 0.0401 µM); in test [2] (Chlamydia pneumoniae, strain TW 183, test I, read-out: MIC), 0.03 µg/mL (≈ 0.0401 µM); in test [2] (setting [5]) it was 0.125 µg/mL (≈ 0.167 µM); in test [2] (setting [6]), 0.125 µg/mL (≈ 0.167 µM). Further, the MIC is 0.125 µg/mL (≈ 0.167 µM) in test [2] (setting [7]); 0.125 µg/mL (≈ 0.167 µM) in test [2] (setting [8]); 0.125 µg/mL (≈ 0.167 µM) in test [2] (setting [9]); 0.125 µg/mL (≈ 0.167 µM) in test [2] (setting [10]); 0.125 µg/mL (≈ 0.167 µM) in test [2] (strain TW 183, test II).
